Measured values: the supplement of paper PMC10307832

Key:
Test in all cases: relative viability (nuclei count vs DMSO), 5 days (fraction); higher = more cells survive
AZD1208 + Lapatinib = compound: N[C@@H]1CCCN(c2c(/C=C3\SC(=O)NC3=O)cccc2-c2ccccc2)C1 [AZD1208] + CS(=O)(=O)CCNCc1ccc(-c2ccc3ncnc(Nc4ccc(OCc5cccc(F)c5)c(Cl)c4)c3c2)o1 [Lapatinib] (partner 2 µM)
Method in brief: (§1)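 After 5 days of treatment, lung cancer cells in 1536-well plates were fixed and stained in a single step (final 0.05% Triton X-100, 1% formaldehyde, 1 ug/ml Hoechst) and their nuclei counted on 4× images. Treatment had been applied by pin tool the day after seeding as one drug alone or as a fixed anchor-drug dose with five library-drug doses (not always all listed) in √10 steps. Relative viability is the nuclei count of treated wells divided by that of vehicle wells, and values are medians of duplicate plates.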

XMD14-99 + Vorinostat = compound: CN1CCN(CC1)C2=CC(=C(C=C2)NC3=NC(=C(S3)C(=O)C4=C(C=CC=C4Cl)Cl)N)OC [XMD14-99] + O=C(CCCCCCC(=O)Nc1ccccc1)NO [Vorinostat] (partner 1 µM)
Method in brief: as §1

AZD1208 + Vorinostat = compound: N[C@@H]1CCCN(c2c(/C=C3\SC(=O)NC3=O)cccc2-c2ccccc2)C1 [AZD1208] + O=C(CCCCCCC(=O)Nc1ccccc1)NO [Vorinostat] (partner 1 µM)
Method in brief: as §1

XMD14-99 + Phenformin = compound: CN1CCN(CC1)C2=CC(=C(C=C2)NC3=NC(=C(S3)C(=O)C4=C(C=CC=C4Cl)Cl)N)OC [XMD14-99] + N=C(N)NC(=N)NCCc1ccccc1 [Phenformin] (partner 250 µM)
Method in brief: as §1

Cell Line | relative viability (AZD1208 + Lapatinib; first compound 0.08 µM) | relative viability (AZD1208 + Lapatinib; first compound 0.253 µM) | relative viability (AZD1208 + Lapatinib; first compound 0.8 µM) | relative viability (AZD1208 + Lapatinib; first compound 2.53 µM) | relative viability (AZD1208 + Lapatinib; first compound 8 µM) | relative viability (XMD14-99 + Vorinostat; first compound 0.08 µM) | relative viability (XMD14-99 + Vorinostat; first compound 0.8 µM) | relative viability (XMD14-99 + Vorinostat; first compound 2.53 µM) | relative viability (XMD14-99 + Vorinostat; first compound 8 µM) | relative viability (AZD1208 + Vorinostat; first compound 0.08 µM) | relative viability (AZD1208 + Vorinostat; first compound 0.253 µM) | relative viability (AZD1208 + Vorinostat; first compound 0.8 µM) | relative viability (AZD1208 + Vorinostat; first compound 2.53 µM) | relative viability (AZD1208 + Vorinostat; first compound 8 µM) | relative viability (XMD14-99 + Phenformin; first compound 0.08 µM) | relative viability (XMD14-99 + Phenformin; first compound 0.8 µM) | relative viability (XMD14-99 + Phenformin; first compound 2.53 µM) | relative viability (XMD14-99 + Phenformin; first compound 8 µM)
IA-LM | 0.766 | 0.948 | 0.766 | 0.621 | 0.633 | 0.96 | 0.728 | 0.649 | 0.515 | 0.922 | 1.27 | 0.778 | 0.863 | 0.853 |  |  |  | 
NCI-H441 |  |  |  |  |  | 0.823 | 0.75 | 0.745 | 0.681 | 0.742 | 0.757 | 0.62 | 0.616 | 0.711 | 0.889 | 0.811 | 0.738 | 0.662
NCI-H322M | 0.574 | 0.568 | 0.507 | 0.578 | 0.56 | 0.862 | 0.965 | 0.852 | 0.746 | 0.934 | 0.868 |  | 0.837 | 0.821 | 0.787 | 0.834 | 0.699 | 0.627
NCI-H1993 |  | 0.749 | 0.689 | 0.794 | 0.75 | 0.595 | 0.889 | 0.793 | 0.714 | 0.584 | 0.63 | 0.726 | 0.548 | 0.501 | 0.467 | 0.506 | 0.447 | 0.436
COR-L23 | 0.991 | 1.18 | 0.942 | 1.02 | 0.916 | 0.409 | 0.415 | 0.304 | 0.181 | 0.488 | 0.401 | 0.49 | 0.433 | 0.41 | 0.446 | 0.418 | 0.372 | 0.301
NCI-H2126 | 0.796 | 0.689 | 0.63 | 0.691 | 0.525 | 0.694 | 0.806 | 0.694 | 0.579 | 0.745 | 0.669 | 0.676 | 0.535 | 0.563 | 0.526 | 0.51 | 0.45 | 0.421
LC-2-ad | 0.961 | 1.01 | 1.04 | 0.94 | 1.03 | 0.672 | 0.704 | 0.646 | 0.553 | 0.716 | 0.703 | 0.685 | 0.704 | 0.669 | 0.611 | 0.554 | 0.58 | 0.505
NCI-H1915 | 0.985 | 1.08 | 1.02 | 0.962 | 0.977 | 0.519 | 0.491 | 0.486 | 0.377 | 0.545 | 0.512 | 0.525 | 0.464 | 0.434 | 0.369 | 0.385 | 0.36 | 0.335
NCI-H1793 | 0.563 | 0.982 | 0.629 | 0.678 | 0.58 | 0.767 | 0.916 | 0.627 | 0.52 | 0.841 | 0.949 | 0.752 | 0.954 | 0.713 | 0.367 | 0.337 | 0.249 | 0.288
NCI-H2085 | 0.768 | 0.862 | 0.7 | 0.687 | 0.726 | 0.768 | 0.788 | 0.768 | 0.613 | 0.796 | 0.821 | 0.749 | 0.82 | 0.751 | 0.668 | 0.68 | 0.681 | 0.572
COR-L 105 | 0.366 | 0.334 | 0.299 | 0.29 | 0.36 | 0.833 | 0.944 | 0.662 | 0.663 | 1.04 | 0.833 | 0.898 | 0.832 | 0.779 | 0.477 | 0.494 | 0.398 | 0.371
SK-LU-1 | 0.802 | 0.864 | 0.826 | 0.831 | 0.839 | 0.735 | 0.74 | 0.813 | 0.479 | 0.776 | 0.785 | 0.73 | 0.783 | 0.736 | 0.523 | 0.563 | 0.456 | 0.322
NCI-H1792 | 0.874 | 0.999 | 0.885 | 0.908 | 0.757 |  |  |  |  |  |  |  |  |  | 0.286 | 0.379 | 0.234 | 0.167
ChaGo-K-1 |  |  |  |  |  | 0.741 | 0.73 | 0.68 | 0.719 | 0.732 | 0.831 | 0.557 | 0.637 | 0.608 | 0.474 | 0.51 | 0.494 | 0.388
NCI-H522 |  |  |  |  |  | 0.809 | 0.889 | 0.757 | 0.956 | 0.691 | 0.75 | 0.768 | 0.828 | 0.836 | 0.658 | 0.616 | 0.702 | 0.692
NCI-H1299 | 0.984 | 0.938 | 0.96 | 1 | 0.945 |  |  |  |  |  |  |  |  |  |  |  |  | 
NCI-H1648 |  |  |  |  |  | 0.397 | 0.287 | 0.437 | 0.395 | 0.371 | 0.491 | 0.298 | 0.36 | 0.89 |  |  |  | 
NCI-H2342 |  |  |  |  |  | 0.747 | 0.703 | 0.872 | 0.989 | 0.831 | 0.702 | 0.604 | 0.799 | 0.597 | 0.675 | 0.782 | 0.68 | 0.513
SW 900 |  |  |  |  |  | 0.509 | 0.667 | 0.489 | 0.432 | 0.519 | 0.638 | 0.35 | 0.605 | 0.512 | 0.6 | 0.685 | 0.555 | 0.402
A549 | 0.899 | 0.921 | 0.859 | 0.828 | 0.721 |  |  |  |  |  |  |  |  |  | 0.153 | 0.16 | 0.0976 | 0.133
NCI-H1563 | 0.918 | 1 | 1.02 | 1.01 | 0.915 |  |  |  |  |  |  |  |  |  | 0.606 | 0.63 | 0.6 | 0.585
LCLC-103H |  |  |  |  |  | 0.786 | 0.798 | 0.759 | 0.664 | 0.772 | 0.858 | 0.789 | 0.613 | 0.697 | 0.294 | 0.348 | 0.318 | 0.298
